T1: EcL-TTD (L-tartrate dehydratase, L-TTDα + L-TTDβ) (Escherichia coli, UniProt P05847+P0AC35)
T1 sequence (P05847 1-303): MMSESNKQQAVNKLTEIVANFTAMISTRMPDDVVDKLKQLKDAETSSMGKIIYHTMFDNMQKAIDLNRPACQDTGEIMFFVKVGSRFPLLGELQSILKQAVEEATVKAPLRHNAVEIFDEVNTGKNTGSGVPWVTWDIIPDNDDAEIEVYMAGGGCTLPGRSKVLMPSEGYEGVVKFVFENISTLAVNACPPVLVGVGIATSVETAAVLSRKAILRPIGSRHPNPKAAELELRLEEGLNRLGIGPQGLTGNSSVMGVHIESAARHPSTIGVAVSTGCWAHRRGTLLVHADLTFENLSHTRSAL
T1 sequence (P0AC35 1-201): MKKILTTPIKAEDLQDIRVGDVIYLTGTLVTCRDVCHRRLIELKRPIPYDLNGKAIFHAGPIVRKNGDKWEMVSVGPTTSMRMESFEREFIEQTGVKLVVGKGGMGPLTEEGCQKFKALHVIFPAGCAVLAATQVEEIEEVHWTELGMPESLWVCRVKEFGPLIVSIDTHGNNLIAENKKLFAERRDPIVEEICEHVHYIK

T2: MjFH (class-I fumarate hydratase, α + β subunits) (Methanocaldococcus jannaschii, UniProt Q58034+Q58690)
T2 sequence (Q58690 1-285): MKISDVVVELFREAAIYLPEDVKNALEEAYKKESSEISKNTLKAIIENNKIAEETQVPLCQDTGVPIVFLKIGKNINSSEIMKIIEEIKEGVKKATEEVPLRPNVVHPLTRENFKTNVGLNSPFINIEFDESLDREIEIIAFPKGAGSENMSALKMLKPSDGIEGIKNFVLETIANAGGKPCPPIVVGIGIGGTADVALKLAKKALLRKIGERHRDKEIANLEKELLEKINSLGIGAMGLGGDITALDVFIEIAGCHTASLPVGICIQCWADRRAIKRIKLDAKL
T2 sequence (Q58034 1-195): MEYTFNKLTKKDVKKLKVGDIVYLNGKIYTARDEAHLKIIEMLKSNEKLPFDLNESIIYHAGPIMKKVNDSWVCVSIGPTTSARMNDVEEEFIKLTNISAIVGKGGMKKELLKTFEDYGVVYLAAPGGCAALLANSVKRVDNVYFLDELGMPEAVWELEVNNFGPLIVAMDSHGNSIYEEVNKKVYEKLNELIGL


Legend:
[1] = target: T1, EcL-TTD (L-tartrate dehydratase, L-TTDα + L-TTDβ); assay: coupled malate dehydrogenase/NADH assay at […] nm, inhibition kinetics; format: biochemical
[2] = target: T2, MjFH (class-I fumarate hydratase, α + β subunits); assay: fumarate formation at […] nm, inhibition kinetics; format: biochemical
[3] = substrate: O=C(O)C(O)C(O)C(=O)O; assay: purified protein; format: biochemical, Escherichia coli; settings: 50 mM Tris-HCl pH 7.4, 37 °C, 250 μM NADH, Fe-S reconstituted

Row | Ki [1] | Ki [2] | Molecule | Km [3]
1 | 261 ± 29 µM |  | O=C(O)C[C@H](O)C(=O)O [S-malate] | 
2 | 149 ± 14 µM | 161 ± 17 µM | O=C(O)C(O)C(O)C(=O)O (stereo not drawn) [meso-tartrate] | 
3 |  |  | EcL-TTD (L-tartrate dehydratase, L-TTDα + L-TTDβ) (Escherichia coli K-12) (protein) chain 1: MMSESNKQQAVNKLTEIVANFTAMISTRMPDDVVDKLKQLKDAETSSMGKIIYHTMFDNMQKAIDLNRPACQDTGEIMFFVKVGSRFPLLGELQSILKQAVEEATVKAPLRHNAVEIFDEVNTGKNTGSGVPWVTWDIIPDNDDAEIEVYMAGGGCTLPGRSKVLMPSEGYEGVVKFVFENISTLAVNACPPVLVGVGIATSVETAAVLSRKAILRPIGSRHPNPKAAELELRLEEGLNRLGIGPQGLTGNSSVMGVHIESAARHPSTIGVAVSTGCWAHRRGTLLVHADLTFENLSHTRSAL chain 2: MKKILTTPIKAEDLQDIRVGDVIYLTGTLVTCRDVCHRRLIELKRPIPYDLNGKAIFHAGPIVRKNGDKWEMVSVGPTTSMRMESFEREFIEQTGVKLVVGKGGMGPLTEEGCQKFKALHVIFPAGCAVLAATQVEEIEEVHWTELGMPESLWVCRVKEFGPLIVSIDTHGNNLIAENKKLFAERRDPIVEEICEHVHYIK | 190 ± 30 µM
